The values that follow come from patent publication US20090259054A1, “Methods and Compositions for the Treatment of Angiogenesis and Macular Degeneration” (The Texas A&M University System, priority 2008, published 2009).

Several values for one entry are separate records, joined by “and”; a condition that tells them apart may be missing. Identical values can stand only once. Entries after “also recorded” stand apart in the source; their conditions may differ.

Data set [1] has as its system HUVEC cells. The experiment in a line: Tube formation assay on Matrigel. The class given is cell-based, human. Conditions: for IC50: Homo sapiens, HUVEC. Here is the method:
Matrigel (BD Biosciences) were thawed at 4° C. overnight and each well of the prechilled 24-well plates was coated with 100 μl Matrigel and incubated at 37° C. for 45 minutes. HUVEC cells (4×10^4 cells) were added in 1 ml ECGM with various concentrations of gambogic acid. After 12-16 hours of incubation at 37° C., 5% CO2, endothelial cell tube formation was assessed using an OLYMPUS inverted microscope. Tubular structures were quantified by manual counting of low power fields (25×) and percent inhibition was expressed using untreated wells as 100% (t-test, p<0.001).

Data set [2] has as its system HUVEC cells. The experiment in a line: Western blotting for cleaved caspase 3 and cleaved PARP (apoptosis). The class given is cell-based, human. To be noted: 100 nM GA. The method, then:
HUVEC cells pretreated with or without 4 nM VEGF for 5 min were treated with or without different concentrations of GA for another 5 minutes. 200 μg total protein of the cells of each sample was subjected to immunoprecipitation using anti-c-Src, anti-FAK and anti-AKT antibodies (Santa Cruz Biotech) and further subjected to Western blotting. The pTyr-antibody (Santa Cruz Biotech) was used for detecting c-Src phosphorylation and the pFAK397 antibody (Cell Signaling) was blotted for c-Src-associated FAK phosphorylation at […]. In addition, AKT phosphorylation was examined using a pSer473-AKT antibody (Cell Signaling). Anti-cleaved caspase 3 antibody (Santa Cruz Biotech) was used for detecting cleaved caspase 3 and polyADP ribose polymerase (PARP) cleavage was detected by an anti-PARP p85 fragment (Promega) in apoptosis assays.
Several previous studies described gambogic acid (FIG. 1A) activated apoptosis in cancer cells, which partly answered the molecular mechanism of GA's anticancer characters. […] Whole cell proteins of GA treated HUVECs were analyzed by Western blotting with anticleaved caspase 3 and PARP antibodies. […] To investigate if the apoptotic activation effect of GA is different between endothelial cells and cancer cells, we measured the apoptotic populations of HUVECs and human prostate cancer cell PC3 cells treated with GA by flow cytometry FACS assays. […]

Data set [3] has as its system HUVEC cells. Put plainly: Wound migration assay, VEGF dependent. Type of data set: cell-based, human. To be noted: 10 nM GA, 4 ng/ml VEGF, 24 hours. The method, then:
HUVEC cells were allowed to grow to full confluence on six-well plates precoated with 0.1% gelatin. Monolayer cells were wounded by scratching with 1 ml pipette tip and washed three times with 1×PBS. Fresh endothelial cell growth medium (hereinafter, ECGM) was added with or without 4 ng/ml VEGF, which was received from the NIH experimental branch, and supplemented with different concentrations of GA. Images were taken after 24 hours of incubation at 37° C. in a 5% CO2 incubator (hereinafter, 5% CO2) with a Nikon digital camera. For PC3 cell migration, PC3 cells were allowed to grow to full confluence on six-well plates and wounded by scratching with a 1 ml pipette tip and washed three times of 1×PBS. Fresh 1640 medium was added with 4 ng/ml VEGF and different concentrations of GA. After a 24-hour incubation period, images were take with a Leica DM IRB inverted microscope. The migrated cells were quantified by manual counting of high power fields (HPF, 200×) and percent inhibition was expressed using untreated wells as 100% (t-test, p<0.005).

Data set [4] relates to PC3 human prostate tumor cells in SCID male mice. Type of data set: in vivo. Here is the method:
The 5-6 week old severe combined immune deficiency (SCID) male mice (ordered from NIH, each weighing about 20 g) were divided into groups of five mice per group. Log-phase PC3 human prostate tumor cells were subcutaneously injected (2×10^6 cell per mouse) into the mice. After the tumors had become established (about 50 mm^3), the mice were subcutaneously injected with or without 3 mg/kg GA every day. The mice body weights and tumor sizes were recorded every day and the tumor sizes were determined by Vernier caliper measurements and calculated as length×width×height. After 15 days, mice with subcutaneous (hereinafter, s.c.) tumors no greater than 1.5 cm in diameter were sacrificed in accordance with University of California Los Angeles Animal Rights Committee Guidelines. The tumors were removed and fixed with Histochoice® MB (Molecular Biology) tissue fixative (Amresco®) and embedded with paraffin. The 5 μm sections were performed specific blood vessel staining with CHEMICON's Blood Vessel Staining Kit (von Willebrand Factor, Chemicon International, blood vessel staining kit, peroxidase system). Images were taken with a ZEISS Axioskop 40 photomicroscope. The number of blood vessels in the high power fields (HPF, 200×) was counted (plug number=4-5, t-test, p<0.005).

For data set [5], the system named is PC3 cells. Put plainly: Proliferation assay (CellTiter 96 Aqueous One). The class given is cell-based. To be noted: Homo sapiens, PC-3; PC3 cancer cells; read-out: Concentration required to inhibit PC3 cell proliferation by 50%. From the text:
(§1) HUVEC and PC3 cell proliferation assays with different concentrations of GA were followed according to the CellTiter 96 Aqueous One Solution Cell Proliferation Assay (Promega) and analyzed using a VERSAMAX microplate reader (Molecular Devices).

Data set [6] has as its system HUVEC cells. Put plainly: Proliferation assay (CellTiter 96 Aqueous One). The class given is cell-based. Conditions: Homo sapiens, read-out: Concentration that inhibits HUVEC cell proliferation by 50%.
Source text: as §1

The conditions of data set [7]: 4 mg/kg GA, 1 treatment every two days; cited from earlier work.
Data set [8] relates to PC3 cells. Put plainly: Flow cytometry / FACS apoptosis (Sub G1, propidium iodide). Type of data set: cell-based, human. To be noted: 24 hours. The method, then: (§2) About 2×10^6 HUVEC and PC3 cells were treated with different concentrations of GA at 37° C. in a 5% CO2 incubator for 24 hours. The cells were collected and flow cytometry was performed using a FACS Vantage SE DiVa flow cytometer (Becton Dickinson) with propidium iodide staining. The cell population percentages at Sub G1 were defined as apoptotic cells.

The test system of data set [9] is HUVEC cells. Described as above. Conditions: 24 hours. The class given is cell-based, human. The method, then:
as §2

As for `CC(C)=CCC[C@]1(C)C=Cc2c(O)c3c(c(CC=C(C)C)c2O1)O[C@]12C(=C[C@@H]4C[C@H]1C(C)(C)O[C@@]2(C/C=C(/C)C(=O)O)C4=O)C3=O` [GA, gambogic acid], in data set [1] (100 nM GA), the “Tube formation ability of HUVECs” value is on record as “completely inhibited the tube-forming ability; also recorded: completely inhibited the tube formation ability”. The IC50 in data set [1] (12-16 hours, read-out: Concentration that inhibited tube formation of HUVEC cells by 50%) is around 50 nM; in [1] (as printed in the legend of FIG. 3, read-out: Concentration that inhibited 50% tube formation of HUVEC cells), around 50 nM; in data set [5], above 400 nM; in data set [6], 80 nM. Also, the “Apoptosis by cleaved caspase 3 and cleaved PARP” value in data set [2] is on record as “induces apoptosis; also recorded: strongly induced apoptosis”. Also, in data set [3], the “VEGF dependent migration of HUVEC cells” value is recorded as “inhibits VEGF dependent migration; also recorded: strongly inhibited VEGF dependent migration”. The “Tumor size after 15 days” value in data set [4] (3 mg/kg GA every day s.c., 15 days) is 169.1±25.6 mm^3 and 127.4±25.6 mm^3. Further, the “Average vessel number in tumors” value in data set [4] (3 mg/kg GA every day, 15 days, HPF 200×) was found to be 1.8±1.3 per HPF. The “Tumor size at start of treatment” value in [4] (GA treated group, before 3 mg/kg GA every day) came out at 51.74±3.8 mm^3. For the same compound, in [4] (mouse, in vivo), the “Average body weight at start” value was 22.4 ± 1 g. Besides, the Toxicity of dosage result in data set [7] is recorded as “non-toxic dosage”. For the same compound, the Apoptotic population was 1.6 ± 0.3 % of total in data set [8] (GA 20 nM); 2.9 ± 0.4 % of total in data set [8] (GA 40 nM); 4 % of total and 4.3 ± 0.5 % of total in data set [8] (GA 80 nM); 13.8 ± 3.6 % of total in data set [8] (GA 100 nM); 11.6 ± 1.1 % of total in data set [9] (GA 20 nM); 14.4 ± 2.3 % of total in [9] (GA 40 nM). Also, the Apoptotic population in [9] (GA 80 nM) was 40 % of total and 40 ± 3.6 % of total; in data set [9] (GA 100 nM), 57.6 ± 4.7 % of total.
